Assay [1] deals with rat kidneys. Description: Urine collection from isolated perfused rat kidney. The following applies: 12 hours of perfusion; mannitol 20 grams/L, gemfibrozil 50 mg/L. How it is done:
(§1) Drug Preparation. Leibovitz L-15 cell culture medium (Sigma, St. Louis, Mo.) was mixed according to the manufacture's specifications to make 2 liters and 120 mg of penicillin was added. The pH of one liter of L-15 was adjusted to 7.4, and this solution was used during the kidney isolation procedure. The other liter was further prepared with addition of various pharmacological agents, and then the pH adjusted to 7.4. Both solutions were then filtered (0.22 microns) into 1 liter containers. The solution with the experimental drug was then perfused through the kidney perfusion system at a rate of 2.6 ml/min. The other solution was placed underneath the hood where the surgery was to be done. Kidney Isolation. Kidneys were isolated under a laminar flow hood (Labconco) fitted with a separate roller pump. The operator used sterilized latex gloves with frequent application of 75% alcohol to gloves and instruments throughout the course of the surgery. Gloves were replaced anytime the operator's hands left the surgical hood. Animals were anesthetized with Inactin (90 mg/kg, ip; Sigma), the abdomen was shaved, washed with 75% alcohol, and covered with autoclaved paper towels. The tubing, which would eventually be required for isolation, was assembled and placed in the roller pump. This tubing consisted of three sequentially smaller sections, the middle of which was the pump tubing (Harvard Apparatus). […]

Assay [2] concerns rat kidneys. Description: Apoptag (TUNEL) staining for apoptosis in 12-hour perfused rat kidneys. The conditions noted are these: mannitol 20 grams/L, gemfibrozil 50 mg/L; vs L-15 alone. Here is the method: as §1
The subject of assay [3] is rat kidneys. Description: Light microscopy histology of isolated rat kidneys perfused 12 hours at 37° C. with L-15. The conditions noted are these: for histological preservation as assessed by light microscopy (screen of pharmacological agents): agent added to L-15 perfusate, 12-hour perfusion at 37° C.; for histology at the light microscopic level / histology score (0 = unrecognizable micro-structure, 10 = 30-minute flushed kidney), FIG. 1: mannitol 20 grams/L, gemfibrozil 50 mg/L, 12-hour perfusion; for histology at the light microscopic level: vs L-15 alone; for histology score (0 = unrecognizable micro-structure, 10 = 30-minute flushed kidney), FIG. 1: blinded observer. How it is done: Animals. Male Sprague-Dawley rats, 15 to 20 weeks-of-age, were housed in a University of Pittsburgh Medical Center animal care facility (temperature 22 EC; light cycle 12 hours; relative humidity 55%). Animals were fed Pro Laboratory RMH 3000 rodent diet (PMI Nutrition Inc., St. Louis, Mo.) and were given water ad libitum. Institutional guidelines for animal welfare were followed, and the Institutional Animal Care and Use Committee approved experimental protocols.
Preparation of Perfusion System. Due to bacterial infection associated with chronic kidney perfusion at 37° C., rat kidneys were perfused in a sterile environment. A glass perfusion system (Hugo Sachs Elektronik-Harvard Apparatus GmbH), which allowed for autoclaving and ultraviolet-light sterilization without damage to the structural integrity of the system, was used in all experiments. This system included the following components arranged in series: a jacketed glass perfusate reservoir for warming and initial oxygenation of perfusate; a jacketed glass-oxygenator for additional oxygenation; a Windkessel chamber for absorption of pulsations; a jacketed heat exchanger for warming the perfusate and trapping bubbles just before the perfusate enters the kidney; and a jacketed organ chamber to keep the kidney's surrounding environment at 37° C.
Drug Preparation. Leibovitz L-15 cell culture medium (Sigma, St. Louis, Mo.) was mixed according to the manufacture's specifications to make 2 liters and 120 mg of penicillin was added. The pH of one liter of L-15 was adjusted to 7.4, and this solution was used during the kidney isolation procedure. The other liter was further prepared with addition of various pharmacological agents, and then the pH adjusted to 7.4. Both solutions were then filtered (0.22 microns) into 1 liter containers. The solution with the experimental drug was then perfused through the kidney perfusion system at a rate of 2.6 ml/min. The other solution was placed underneath the hood where the surgery was to be done.
Kidney Isolation. Kidneys were isolated under a laminar flow hood (Labconco) fitted with a separate roller pump. The operator used sterilized latex gloves with frequent application of 75% alcohol to gloves and instruments throughout the course of the surgery. Gloves were replaced anytime the operator's hands left the surgical hood. Animals were anesthetized with Inactin (90 mg/kg, ip; Sigma), the abdomen was shaved, washed with 75% alcohol, and covered with autoclaved paper towels. The tubing, which would eventually be required for isolation, was assembled and placed in the roller pump. This tubing consisted of three sequentially smaller sections, the middle of which was the pump tubing (Harvard Apparatus). The smallest of the sections was linked, using an adaptor connector, to PE-50 tubing (which had been previously soaked in alcohol for at least 2 days). This PE-50 tubing was for insertion into the renal artery. The largest size tubing was placed into the 1 liter of room temperature L-15. The pump was turned on for a brief time, allowing all tubing to be filled with L-15 medium to remove all air bubbles from the tubing. The skin covering the abdominal cavity was cut horizontally. A light spray of alcohol was applied to the area to remove pieces of hair, followed by a horizontal cut in the same area through the muscle; exposing the internal organs. A section of sterile gauze was set to the left of the animal, and the large/small intestines were gently pulled out of the abdominal cavity and wrapped in the gauze. […] All side branches of the renal artery and vein were ligated and cut. Next, the aorta, vena cava, renal artery and renal vein were identified, cleaned of fat and connective tissue and dissected free, and ligatures were loosely placed around these vessels. […]

The test system of a further assay is rat kidney tissue. Description: Electron microscopy of isolated rat kidneys perfused 12 hours with L-15. The conditions noted are these: one kidney per group; mannitol 20 grams/L, gemfibrozil 50 mg/L; vs L-15 alone. Here is the method:
Drug Preparation. Leibovitz L-15 cell culture medium (Sigma, St. Louis, Mo.) was mixed according to the manufacture's specifications to make 2 liters and 120 mg of penicillin was added. The pH of one liter of L-15 was adjusted to 7.4, and this solution was used during the kidney isolation procedure. The other liter was further prepared with addition of various pharmacological agents, and then the pH adjusted to 7.4. Both solutions were then filtered (0.22 microns) into 1 liter containers. The solution with the experimental drug was then perfused through the kidney perfusion system at a rate of 2.6 ml/min. The other solution was placed underneath the hood where the surgery was to be done. Kidney Isolation. Kidneys were isolated under a laminar flow hood (Labconco) fitted with a separate roller pump. The operator used sterilized latex gloves with frequent application of 75% alcohol to gloves and instruments throughout the course of the surgery. Gloves were replaced anytime the operator's hands left the surgical hood. Animals were anesthetized with Inactin (90 mg/kg, ip; Sigma), the abdomen was shaved, washed with 75% alcohol, and covered with autoclaved paper towels. The tubing, which would eventually be required for isolation, was assembled and placed in the roller pump. This tubing consisted of three sequentially smaller sections, the middle of which was the pump tubing (Harvard Apparatus). The smallest of the sections was linked, using an adaptor connector, to PE-50 tubing (which had been previously soaked in alcohol for at least 2 days). This PE-50 tubing was for insertion into the renal artery. The largest size tubing was placed into the 1 liter of room temperature L-15. The pump was turned on for a brief time, allowing all tubing to be filled with L-15 medium to remove all air bubbles from the tubing. The skin covering the abdominal cavity was cut horizontally. A light spray of alcohol was applied to the area to remove pieces of hair, followed by a horizontal cut in the same area through the muscle; exposing the internal organs. A section of sterile gauze was set to the left of the animal, and the large/small intestines were gently pulled out of the abdominal cavity and wrapped in the gauze. […] All side branches of the renal artery and vein were ligated and cut. Next, the aorta, vena cava, renal artery and renal vein were identified, cleaned of fat and connective tissue and dissected free, and ligatures were loosely placed around these vessels. The infra-renal aorta was ligated, a small clamp was placed on the aorta just above the ligation but below the renal artery, a cut was made between the clamp and ligation, and the PE-50 tubing was inserted, secured with a ligature and advanced into the left renal artery. […]

The next assay concerns Na+-K+-ATPase-α1. Description: Western blotting and densitometry of Na+-K+-ATPase-α1 in 12-hour perfused rat kidneys. The conditions noted are these: mannitol 20 grams/L, gemfibrozil 50 mg/L; 12-hour perfusion. How it is done:
as §1
In general terms: A western blot detects proteins with antibodies after separation by electrophoresis.

Assay [4] has as its system rat kidneys. Description: Perfusion pressure of isolated perfused rat kidney over 12 hours. The following applies: mannitol 20 grams/L, gemfibrozil 50 mg/L. Here is the method: Drug Preparation. Leibovitz L-15 cell culture medium (Sigma, St. Louis, Mo.) was mixed according to the manufacture's specifications to make 2 liters and 120 mg of penicillin was added. The pH of one liter of L-15 was adjusted to 7.4, and this solution was used during the kidney isolation procedure. The other liter was further prepared with addition of various pharmacological agents, and then the pH adjusted to 7.4. Both solutions were then filtered (0.22 microns) into 1 liter containers. The solution with the experimental drug was then perfused through the kidney perfusion system at a rate of 2.6 ml/min. The other solution was placed underneath the hood where the surgery was to be done. Kidney Isolation. Kidneys were isolated under a laminar flow hood (Labconco) fitted with a separate roller pump. The operator used sterilized latex gloves with frequent application of 75% alcohol to gloves and instruments throughout the course of the surgery. Gloves were replaced anytime the operator's hands left the surgical hood. Animals were anesthetized with Inactin (90 mg/kg, ip; Sigma), the abdomen was shaved, washed with 75% alcohol, and covered with autoclaved paper towels. The tubing, which would eventually be required for isolation, was assembled and placed in the roller pump. This tubing consisted of three sequentially smaller sections, the middle of which was the pump tubing (Harvard Apparatus). The smallest of the sections was linked, using an adaptor connector, to PE-50 tubing (which had been previously soaked in alcohol for at least 2 days). This PE-50 tubing was for insertion into the renal artery. The largest size tubing was placed into the 1 liter of room temperature L-15. The pump was turned on for a brief time, allowing all tubing to be filled with L-15 medium to remove all air bubbles from the tubing. The skin covering the abdominal cavity was cut horizontally. A light spray of alcohol was applied to the area to remove pieces of hair, followed by a horizontal cut in the same area through the muscle; exposing the internal organs. […]

Counter-ions that a name gives are not always drawn.

On to `Cc1ccc(C)c(OCCCC(C)(C)C(=O)O)c1` [gemfibrozil], for which, in the assay with rat kidneys [1], the “total urine volume, FIG. 4C” value was “increased total urine volume”. Besides, the “degree of apoptosis (Apoptag staining)” value in the assay with rat kidneys [2] is on record as “reduced the degree of apoptosis”. Besides, in the assay with rat kidneys [3], the “histological preservation as assessed by light microscopy (screen of pharmacological agents)” value (from here on “histological preservation as assessed”) is recorded as “moderate histological preservation”; the “histology at the light microscopic level” value was “modestly improved”; the “histology score (0 = unrecognizable micro-structure, 10 = 30-minute flushed kidney), FIG. 1” value was “statistically significantly improved the histological score”. In the assay with rat kidney tissue, the “glomerular ultrastructure (electron microscopy)” value is recorded as “slightly improved” and the “tubular ultrastructure (electron microscopy)” value is on record as “only marginally better”. Also, the “Na+-K+-ATPase-α1 expression normalized to β-actin, FIG. 2” value in the assay on Na+-K+-ATPase-α1 is “slightly higher”. Besides, the “rapid increase in perfusion pressure observed in L-15 alone kidneys, FIG. 3” value in the assay with rat kidneys [4] is on record as “delayed”.
As for `OC[C@@H](O)[C@@H](O)[C@H](O)[C@H](O)CO` [mannitol], the “total urine volume, FIG. 4C” value with rat kidneys [1] was “increased total urine volume”. Further, the “degree of apoptosis (Apoptag staining)” value in the assay on rat kidneys [2] is given as “reduced the degree of apoptosis”. In the assay with rat kidneys [3], the “histological preservation as assessed” value is “moderate histological preservation”; the “histology at the light microscopic level” value is given as “modestly improved”; the “histology score (0 = unrecognizable micro-structure, 10 = 30-minute flushed kidney), FIG. 1” value is recorded as “did not achieve statistical significance”. In addition, in the assay with rat kidney tissue, the “glomerular ultrastructure (electron microscopy)” value was “slightly improved” and the “tubular ultrastructure (electron microscopy)” value is “only marginally better”. Further, in the assay with Na+-K+-ATPase-α1, the “Na+-K+-ATPase-α1 expression normalized to β-actin, FIG. 2” value was “nearly undetectable”. Besides, the “rapid increase in perfusion pressure observed in L-15 alone kidneys, FIG. 3” value in the assay with rat kidneys [4] is recorded as “more so”. Besides, in the assay on rat kidneys [4] (L-15 alone approximately 50 mm Hg), the “initial renal perfusion pressure, FIG. 3” value is “approximately 25 mm Hg”.
On to `O=c1[nH]c(=O)c2[nH]c(=O)[nH]c2[nH]1` [uric acid], for which, in the assay on rat kidneys [3], the “histological preservation as assessed” value is listed as “mild protection”.
Same read-out and setting: for `NC(=O)c1cccc(N)c1` [3-aminobenzamide] the value was “mild protection”.
On the same count and under the same terms, for `Nc1cc(N2CCCCC2)nc(N)[n+]1OS(=O)(=O)[O-]` [minoxidil sulfate] the value was “mild protection”; for `C[C@]12CCC(=O)C=C1CC[C@@H]1[C@@H]2[C@@H](O)C[C@]2(C=O)[C@@H](C(=O)CO)CC[C@@H]12` [Aldosterone, aldosterone], “mild protection”.

For the origin of these results see patent US7897326B2, “Peroxisome-proliferator activated receptor-alpha agonists for organ preservation” (University of Pittsburgh-of the Commonwealth System of …, priority 2006, dated 2011).
